We go through eleven compounds from ChEMBL document CHEMBL1157821, “In vitro photodynamic therapy and quantitative structure-activity relationship studies with stable synthetic near-infrared-absorbing bacteriochlorin photosensitizers” (J Med Chem, 2010).

SMILES strings stand for the structures.

The test deals with HeLa. In words: Photocytotoxicity against human HeLa cells assessed as survival-fraction per unit uptake measured as concentration in incubation medium necessary to produce cell uptake of 0.3 nmol per mg of protein at which survival fraction was determined after 24 hrs in presence of 10 J/cm2 light. It is filed as functional.
Consider `CC1(C)Cc2cc3[nH]c(cc4nc(cc5[nH]c(cc1n2)cc5C(=O)O)CC4(C)C)cc3C(=O)O`, for which the survival fraction was determined as 0.35.

Regarding `CC1(C)Cc2cc3[nH]c(cc4nc(cc5[nH]c(cc1n2)cc5C(=O)NCCN)CC4(C)C)cc3C(=O)NCCN`, the survival fraction amounted to 0.88.

In the case of `CC1(C)Cc2cc3[nH]c(cc4nc(cc5[nH]c(cc1n2)cc5CN(CCO)CCO)CC4(C)C)cc3CN(CCO)CCO`, the survival fraction worked out at 0.04.

As for `COCCOCCOCCOCCNCc1cc(CNCCOCCOCCOCCOC)cc(-c2c3nc(cc4[nH]c(cc4-c4ccc(C)cc4)c(OC)c4nc(cc5[nH]c2cc5-c2ccc(C)cc2)C(C)(C)C4)C(C)(C)C3)c1`, the survival fraction was 0.1.

In the case of `CC1(C)Cc2cc3[nH]c(cc4nc(cc5[nH]c(cc1n2)cc5-c1cc(OCCO)cc(OCCO)c1)CC4(C)C)cc3-c1cc(OCCO)cc(OCCO)c1`, the survival fraction worked out at 0.001.

Regarding `CC1(C)Cc2cc3[nH]c(cc4nc(cc5[nH]c(cc1n2)cc5-c1cc(O)cc(O)c1)CC4(C)C)cc3-c1cc(O)cc(O)c1`, the survival fraction worked out at 0.01.

As to `CC1(C)Cc2cc3[nH]c(cc4nc(cc5[nH]c(cc1n2)cc5C#CC[N+](C)(C)C)CC4(C)C)cc3C#CC[N+](C)(C)C.[Cl-].[Cl-]`, the survival fraction was determined as 0.6.

Take `CC1(C)Cc2cc3[nH]c(cc4nc(cc5[nH]c(cc1n2)cc5C(=O)N(CCN)CCN)CC4(C)C)cc3C(=O)N(CCN)CCN`: the survival fraction was 0.9.

For the compound `CC1(C)Cc2cc3[nH]c(cc4nc(cc5[nH]c(cc1n2)cc5C(=O)N1CC[N+](C)(C)CC1)CC4(C)C)cc3C(=O)N1CC[N+](C)(C)CC1.[Cl-].[Cl-]`, the survival fraction was 1.

For `CC1(C)Cc2cc3[nH]c(cc4nc(cc5[nH]c(cc1n2)cc5C(=O)/C=C/c1cc(O)cc(O)c1)CC4(C)C)cc3C(=O)/C=C/c1cc(O)cc(O)c1`, the survival fraction was 0.23.

With `COCCN(CCOC)C(=O)c1cc2cc3nc(cc4[nH]c(cc5nc(cc1[nH]2)CC5(C)C)cc4C(=O)N(CCOC)CCOC)CC3(C)C`, the survival fraction turned out to be 0.02.
